{"source": "patent US20230106864A1", "about": "“COMPOSITIONS AND METHODS FOR THE TREATMENT OF INTRACELLULAR BACTERIAL INFECTIONS” (Endolytix Technology, Inc., priority 2020, published 2023)", "system": "M. abscessus", "assay": "Cell growth assay of M. abscessus with ABlα plus antibiotic, Fractional Inhibitory Concentration (FIC) index", "assay_type": "cell-based, Mycobacterium abscessus", "conditions": "antibiotic in combination with ABlα; FIG. 5"}
{"smiles": "CO[C@@]1(NC(=O)Cc2cccs2)C(=O)N2C(C(=O)O)=C(COC(N)=O)CS[C@@H]21", "note": "[cefoxitin]", "values": [{"measurement": "effect on attenuation of M. abscessus growth by FIC index", "value": "synergistic"}]}
{"smiles": "NCC[C@H](O)C(=O)N[C@@H]1C[C@H](N)[C@@H](O[C@H]2O[C@H](CN)[C@@H](O)[C@H](O)[C@H]2O)[C@H](O)[C@H]1O[C@H]1O[C@H](CO)[C@@H](O)[C@H](N)[C@H]1O", "note": "[amikacin]", "values": [{"measurement": "effect on attenuation of M. abscessus growth by FIC index", "value": "synergistic"}]}
{"smiles": "C[C@@H](O)[C@H]1C(=O)N2C(C(=O)[O-])=C(SC3Cn4cnc[n+]4C3)[C@H](C)[C@H]12", "note": "(stereo partly drawn) [biapenem]", "values": [{"measurement": "effect on attenuation of M. abscessus growth by FIC index", "value": "synergistic"}]}
